Measurements: patent publication US12391672B2, “Solid forms comprising (S)-4-(4-(4-(((2-(2,6-dioxopiperidin-3-yl)-1-oxoisoindolin-4-yl)oxy)methyl)benzyl)piperazin-1-yl)-3-fluorobenzonitrile and salts thereof, and compositions comprising and methods of using the same” (Celgene Corporation, priority 2019, dated 2025)
Values after ≈ are worked out from the molar mass of the structure shown. Values joined by “and” are separate entries in the source; they are usually repeats but may differ in a detail not shown here. Equal values may be shown once. One block for each compound: values may come before it.

Tests used:
Type in all cases: physicochemical
[1] = Solubility determination (15 minutes at room temperature, HPLC)
Protocol: 1 mL of buffer or of ultrapure (resistivity≥18.2 Mf cm) water was added to a pre-weighed, approximately twenty milligram aliquot of the substance to be measured. The resulting suspensions were stirred for 15 minutes at room temperature with magnetic stirrers. The suspensions were centrifuged and filtered through Millipore 0.2 μm PVDF filters, and the concentration of each filtrate (i.e., saturated solution) was determined using a general HPLC method. The pH of each saturated solution was measured with a Metrohm 713 pH meter.
To assess whether Form K and Form K′ are likely to have different bioavailabilities, comparative solubility measurements were carried out in physiologically relevant media. Samples of Form K and Form K′ were separately equilibrated in pure water, pH 2.0 buffer, and pH 6.8 buffer for fifteen minutes, and the solids were then separated from the solvents. The concentration of the compound in the filtrate (i.e., the solubility) was assessed in each case, and the solid residues were also monitored by powder X-ray diffraction. All six solid residues correspond to Form K, confirming that Form K′ rapidly incorporates water into its lattice when suspended in an aqueous environment even when the solubility is low. While the solubilities in pure water and at pH 6.8 were below the limit of quantitation of 0.0001 mg/mL, the solubilities at pH 2.0 could be measured. […] Thus, the bioavailabilities of the two forms are expected to be similar, and precise control of the water content (and, thereby, the solid form) is presumably not necessary from a scientific point of view. Given that the critical water activity is in the range aH2O=0.11-0.17, the hydrated Form K is likely to be the more easily stabilized of the two forms under ambient laboratory conditions.

[2] = Dynamic vapor sorption / hygroscopicity; details: for hygroscopicity: DVS, class by mass gain at 85% r.h.; for solid form after DVS cycle: after the DVS humidity cycle
Protocol: Projekt Messtechnik (now ProUmid) SPS11-100n. The sample was placed on an aluminum holder on top of a microbalance and allowed to equilibrate at 50% r.h. before starting one of the following pre-defined humidity programs (1 cycle): • hold 2 h at 50% r.h., • decrease humidity −5% r.h. h^−1 for 10 h (i.e., from 50% r.h. to 0% r.h.), • hold 5 h at […]., • increase humidity +5% r.h. h^−1 for 19 h (i.e., from 0% r.h. to 95% r.h.), • hold 5 h at 95% r.h., • decrease humidity −5% r.h. h^−1 for 9 h (i.e., from 95% r.h. to 50% r.h.), • hold 2 h at 50% r.h. or • hold 2 h at 50% r.h., • increase humidity +5% r.h. h^−1 for 9 h (i.e., from 50% r.h. to 95% r.h.), • hold 5 h at 95% r.h., • decrease humidity −5% r.h. h^−1 for 19 h (i.e., from 95% r.h. to 0% r.h.), • hold 5 h at 0% r.h., • increase humidity +5% r.h. h^−1 for 10 h (i.e., from 0% r.h. to 50% r.h.), • hold 2 h at 50% r.h.
The hygroscopicity was classified based on the mass gain at 85% r.h. relative to the initial mass as follows: deliquescent (sufficient water adsorbed to form a liquid), very hygroscopic (mass increase of […]), hygroscopic (mass increase of <15% but ≥2%), slightly hygroscopic (mass increase of <2% but ≥0.2%), or non-hygroscopic (mass increase of <0.2%).

[3] = Critical water activity of hydrochloride Form L and Form N; details: for form after slurry (XRPD): water/acetone
Protocol: Determination of critical water activity for Form L and Form N: 50 mg of Form L was suspended in 0.5-1 ml of water/acetone solution with specific water activity. The solutions were stirred at RT or 60′° C. Form conversion was monitored by XRPD over 2 weeks.

[4] = Solid state stability under accelerated storage conditions
Protocol: Form A was not isolated directly as a wet cake but formed only upon drying of Form E in polymorphism studies. […] Small quantities of Form A were generated by dissolving a crude Compound 1 in MEK at high temperature, followed by fast cooling to room temperature, filtration and drying. DSC and TGA data were obtained for samples of Form A and following storage for 1 week at 60° C. and 60° C./75% RH. […] TGA analysis confirmed that this broad endotherm was most likely due to moisture uptake under the accelerated storage conditions. Most of the weight loss of 0.82% in this sample occurred in a single step at less than 75° C. By contrast, weigh loss was a two-step process at the initial time point. […] The residual solvent initially present in the sample was lost upon storage of the sample at 60° C. (0.13% weight loss between 25 to 150° C.).
Form B could be obtained from a process involving methyl acetate. […] HPLC traces were taken of the samples of Form B and following storage for 2 week at 60° C. and 60° C./75% RH. […] Several small degradation products were seen to grow especially in the sample stored at 60° C. Chiral instability was also observed in the sample stored at 60° C./75% RH.
Physical stability: Visually, all samples of Form K were white colored powder with no apparent change in color in the samples stored under accelerated conditions (40° C., 40° C./75% RH, 60° C., 60° C./75% RH and sample stored in light chamber in clear vials exposed to light and covered in aluminum foil) for 14 d relative to the sample stored refrigerated and under ambient conditions.
Solid state chemical stability: HPLC analysis were performed on Form K samples stored under the accelerated stability conditions. […] Based on the HPLC analysis data, there is a measurable but small change in the chemical stability of Form K under the accelerated conditions of temperature, humidity and exposure to light over the 14 d period.
Solid state chiral stability: Chiral stability of Form K samples stored under accelerated stability conditions was tested. There was ˜2.9% of the R-enantiomer (97.1 area % of the active S-isomer) in the initial sample. […]
The chiral purity (area % of S-isomer) remained […] under the accelerated stability conditions.

[5] = Competitive slurry and slurry stability experiments; details: water, prolonged stirring
Protocol: Form B was obtained at room temperature while form C was obtained at 45° C. in acetone alone.
The HBr salt was largely insoluble in various buffers when 1 mg/mL slurries were prepared and the mother liquor concentration determined (by HPLC): <0.05 mg/mL in all buffers tested.

[6] = Solubility of polymorphic forms in physiologically relevant media and final pH
Excerpt: Solubility data of the several polymorphic forms of Compound 1 in physiologically relevant media and the final pH of these solutions are summarized in the following tables.

[7] = Storage at controlled relative humidities (Form K / Form K′)
Excerpt: It was noticed that after Form K was dried, the XRPD peaks of Form K shifted to a higher value and the resulting XRPD pattern is called Form K′. To further understand the relationships between the two forms, free base Form K and Form K′ were placed on XRPD sample holders and stored in a closed Jars with saturated salt solutions for RH controls at ambient temperature, respectively. […] The XRPD diffractograms of the samples after 2-day storage are presented in FIG. 132 and FIG. 133, respectively. […] Since the peaks of Form K shifted to higher 2-theta value as Form K loses water molecules to Form K′, Form K and Form K′ are on a continuum.

[8] = relative humidity from about 5% to about 95%

aqueous solubility for the free base component ([1]; water, sample changed (solid-form transformation or gel), value may not represent the initial form): 4.1 mg/mL and 7.2 mM
solid form after DVS cycle [2]: remains as Form A
DVS mass increase [2, 8]: about 11.7%
SMILES: Cl.N#Cc1ccc(N2CCN(Cc3ccc(COc4cccc5c4CN(C4CCC(=O)NC4=O)C5=O)cc3)CC2)c(F)c1 (centres unmarked)
hygroscopicity [2]: hygroscopic (hygroscopic (mass increase of <15% but ≥2%))

SMILES: Cl.N#Cc1ccc(N2CCN(Cc3ccc(COc4cccc5c4CN([C@H]4CCC(=O)NC4=O)C5=O)cc3)CC2)c(F)c1
hygroscopicity [2]: slightly hygroscopic (slightly hygroscopic (mass increase of <2% but ≥0.2%))
solid form after DVS cycle [2]: remains as Form L
DVS mass increase ([2]; relative humidity from about 0% to about 95%): about 0.6%
critical water activity (Form L to Form N) ([3]; 60° C.): 0.4-0.5
critical water activity (Form L to Form N) ([3]; RT): 0.2-0.4
form after slurry (XRPD) ([3]; Aw 0.1, RT): Form L
form after slurry (XRPD) ([3]; Aw 0.2, 60° C.): Form L
form after slurry (XRPD) ([3]; Aw 0.2, RT): Form L
form after slurry (XRPD) ([3]; Aw 0.3, 60° C.): Form L
form after slurry (XRPD) ([3]; Aw 0.3, RT): Form AA
form after slurry (XRPD) ([3]; Aw 0.4, 60° C.): Form L
form after slurry (XRPD) ([3]; Aw 0.4, RT): Form N
form after slurry (XRPD) ([3]; Aw 0.5, 60° C.): Form N
form after slurry (XRPD) ([3]; Aw 0.5, RT): Form N

SMILES: N#Cc1ccc(N2CCN(Cc3ccc(COc4cccc5c4CN([C@H]4CCC(=O)NC4=O)C5=O)cc3)CC2)c(F)c1.O=S(=O)(O)c1ccccc1 [Form B of a besylate salt of Compound 1]
physical stability (XRPD) ([4]; 40° C., 40° C./75% RH, 60° C., 60° C./75% RH, and under light for 14 days): physically stable
chiral purity (area % of S-isomer) ([4]; accelerated stability conditions, 14 days): above 99%
Chemical purity (HPLC) on storage ([4]; accelerated stability conditions, 14 days, peak grows with temperature and humidity): showed degradation peak
hygroscopicity [2]: slightly hygroscopic (slightly hygroscopic (mass increase of <2% but ≥0.2%))
solid form after DVS cycle [2]: remains as Form B
DVS mass increase [2, 8]: about 1.75%

SMILES: N#Cc1ccc(N2CCN(Cc3ccc(COc4cccc5c4CN([C@H]4CCC(=O)NC4=O)C5=O)cc3)CC2)c(F)c1 [Form C of a free base of Compound 1]
competitive slurry of Form C and Form K [5]: gradual conversion of Form C to Form K
physical and chemical stability ([4]; accelerated stability conditions): physically and chemically stable
Solubility ([6]; FaSSIF): 0.001 mg/mL (≈ 1.76 µM)
Solubility ([6]; FeSSiF, listed as Form C): 0.031 mg/mL (≈ 54.6 µM)
Solubility ([6]; SGF with pepsin, listed as Form C): 0.427 mg/mL (≈ 752 µM)
Solubility ([6]; Water): <LOQ
Solubility ([6]; pH 1 buffer HC1/NaC1, listed as Form C): 0.108 mg/mL (≈ 190 µM)
Solubility ([6]; pH 3 buffer (phosphate), listed as Form C): 0.277 mg/mL (≈ 488 µM)
Solubility ([6]; pH 4 buffer (acetate), listed as Form C): 0.065 mg/mL (≈ 115 µM)
Solubility ([6]; pH 5 buffer (acetate), listed as Form C): 0.003 mg/mL (≈ 5.29 µM)
Final pH ([6]; solubility sample in FaSSIF, listed as Form C): 6.44
Final pH ([6]; solubility sample in FeSSiF, listed as Form C): 5.05
Final pH ([6]; solubility sample in SGF with pepsin, listed as Form C): 1.29
Final pH ([6]; solubility sample in Water, listed as Form C): 6.86
Final pH ([6]; solubility sample in pH 1 buffer HC1/NaC1, listed as Form C): 1.07
Final pH ([6]; solubility sample in pH 3 buffer (phosphate), listed as Form C): 3.31
Final pH ([6]; solubility sample in pH 4 buffer (acetate), listed as Form C): 4.14
Final pH ([6]; solubility sample in pH 5 buffer (acetate), listed as Form C): 5.11
hygroscopicity ([2]; listed as Form C): hygroscopic (hygroscopic (mass increase of <15% but ≥2%))
DVS mass increase ([2]; relative humidity from about 5% to about 95%, listed as Form C): about 8.3%

SMILES: N#Cc1ccc(N2CCN(Cc3ccc(COc4cccc5c4CN([C@H]4CCC(=O)NC4=O)C5=O)cc3)CC2)c(F)c1 [Form D of a free base of Compound 1]
hygroscopicity ([2]; listed as Form D): slightly hygroscopic (slightly hygroscopic (mass increase of <2% but ≥0.2%))
solid form after DVS cycle ([2]; listed as Form D): a mixture of Form B and Form E
DVS mass increase ([2]; relative humidity from about 5% to about 95%, listed as Form D): about 3.0%

SMILES: N#Cc1ccc(N2CCN(Cc3ccc(COc4cccc5c4CN([C@H]4CCC(=O)NC4=O)C5=O)cc3)CC2)c(F)c1 [Form K′ of a free base of Compound 1]
solubility at pH 2.0 ([1]; pH 2.0 buffer, fifteen minutes): 0.93 mg/mL
solid residue after solubility measurement (powder X-ray diffraction) ([1]; pure water, pH 2.0 buffer and pH 6.8 buffer, fifteen minutes): Form K
form conversion on storage (XRPD) ([7]; 22% RH or above, ambient temperature): converts to K
PXRD result after storage ([7]; stored at 17% r.h. and r.t. for 2.5 d): Form K

SMILES: Cl.N#Cc1ccc(N2CCN(Cc3ccc(COc4cccc5c4CN([C@H]4CCC(=O)NC4=O)C5=O)cc3)CC2)c(F)c1 [HC1 Salt]
Solubility ([6]; FaSSIF): 0.001 mg/mL
Solubility ([6]; FeSSiF): 0.094 mg/mL
Solubility ([6]; SGF with pepsin): 0.295 mg/mL
Solubility ([6]; pH 1 buffer HC1/NaC1): 0.071 mg/mL
Solubility ([6]; pH 3 buffer (phosphate)): 0.149 mg/mL
Solubility ([6]; pH 4 buffer (acetate)): 0.124 mg/mL
Solubility ([6]; pH 5 buffer (acetate)): 0.017 mg/mL
Final pH ([6]; solubility sample in FaSSIF): 5.96
Final pH ([6]; solubility sample in FeSSiF): 4.99
Final pH ([6]; solubility sample in SGF with pepsin): 1.28
Final pH ([6]; solubility sample in pH 1 buffer HC1/NaC1): 1.05
Final pH ([6]; solubility sample in pH 3 buffer (phosphate)): 3.05
Final pH ([6]; solubility sample in pH 4 buffer (acetate)): 4.00
Final pH ([6]; solubility sample in pH 5 buffer (acetate)): 4.83
